Laboratory results published in PubChem BioAssay AID330 (DTP/NCI, 2004).
Several values for one entry are separate records, joined by “and”; a condition that tells them apart may be missing. Equal values may be shown once. Inconclusive results and toxic doses are left out.

Test system: P388 leukemia ip, CD2F1 mice, survival T/C
Experiment: NCI In Vivo Anticancer Drug Screen. Data for tumor model P388 Leukemia (intraperitoneal) in CD2F1 (CDF1) mice
Settings: endpoint: median survival time, higher = longer survival
Method in brief: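 Mice carrying the transplanted tumor received test compound or vehicle. Survival was recorded in each group, and the value is the treated-group measurement divided by that of the vehicle-treated control group.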

[1] = dose: 100.0 mg/kg/injection, schedule: Q01DX001 (ip), vehicle: saline with Tween-80
[2] = dose: 200.0 mg/kg/injection, schedule: Q01DX001 (ip), vehicle: saline with Tween-80
[3] = dose: 400.0 mg/kg/injection, schedule: Q01DX001 (ip), vehicle: saline with Tween-80
[4] = dose: 50.0 mg/kg/injection, schedule: Q01DX009 (ip), vehicle: saline with Tween-80
[5] = dose: 50.0 mg/kg/injection, schedule: Q04DX003 (ip), vehicle: saline with Tween-80
[6] = dose: 100.0 mg/kg/injection, schedule: Q01DX009 (ip), vehicle: saline with Tween-80
[7] = dose: 100.0 mg/kg/injection, schedule: Q04DX003 (ip), vehicle: saline with Tween-80
[8] = dose: 200.0 mg/kg/injection, schedule: Q01DX009 (ip), vehicle: saline with Tween-80
[9] = dose: 200.0 mg/kg/injection, schedule: Q04DX003 (ip), vehicle: saline with Tween-80
[10] = dose: 50.0 mg/kg/injection, schedule: Q01DX009 (ip), vehicle: Klucel (hydroxypropylcellulose) (HPC)
[11] = dose: 100.0 mg/kg/injection, schedule: Q01DX009 (ip), vehicle: Klucel (hydroxypropylcellulose) (HPC)
[12] = dose: 50.0 mg/kg/injection, schedule: Q01DX005 (ip), vehicle: Klucel (hydroxypropylcellulose) (HPC)
[13] = dose: 100.0 mg/kg/injection, schedule: Q01DX005 (ip), vehicle: Klucel (hydroxypropylcellulose) (HPC)
[14] = dose: 60.0 mg/kg/injection, schedule: Q01DX005 (ip), vehicle: saline with Tween-80
[15] = dose: 120.0 mg/kg/injection, schedule: Q01DX005 (ip), vehicle: saline with Tween-80
[16] = dose: 240.0 mg/kg/injection, schedule: Q01DX005 (ip), vehicle: saline with Tween-80
[17] = dose: 12.5 mg/kg/injection, schedule: Q01DX009 (ip), vehicle: Klucel (hydroxypropylcellulose) (HPC)
[18] = dose: 25.0 mg/kg/injection, schedule: Q01DX009 (ip), vehicle: Klucel (hydroxypropylcellulose) (HPC)
[19] = dose: 200.0 mg/kg/injection, schedule: Q01DX005 (ip), vehicle: Klucel (hydroxypropylcellulose) (HPC)

O=C1/C(=C/c2ccc([N+](=O)[O-])cc2)Cc2c1cccc2[N+](=O)[O-]
T/C (dose: 25.0 mg/kg/injection, schedule: Q01DX001 (ip), vehicle: saline with Tween-80): 98 % of control
T/C (dose: 50.0 mg/kg/injection, schedule: Q01DX001 (ip), vehicle: saline with Tween-80): 98 % of control
T/C [1]: 99 % of control and 95 % of control
T/C [2]: 93 % of control
T/C [3]: 89 % of control

C=C(Cl)CSc1ncnc2nc[nH]c12
T/C [4]: 100 % of control
T/C [5]: 95 % of control
T/C [6]: 109 % of control
T/C [7]: 91 % of control
T/C [8]: 109 % of control
T/C [9]: 91 % of control

COc1ccc(/C=C(/C#N)c2ccccc2)cc1
T/C (dose: 100.0 mg/kg/injection, schedule: Q04DX003 (ip), vehicle: other): 100 % of control
T/C (dose: 200.0 mg/kg/injection, schedule: Q04DX003 (ip), vehicle: other): 100 % of control
T/C (dose: 400.0 mg/kg/injection, schedule: Q04DX003 (ip), vehicle: other): 104 % of control

OC1COCC2N3C(=NN12)Sc1ccccc13 (configuration not stated)
T/C (dose: 100.0 mg/kg/injection, schedule: Q04DX003 (ip), vehicle: saline): 105 % of control
T/C (dose: 200.0 mg/kg/injection, schedule: Q04DX003 (ip), vehicle: saline): 107 % of control
T/C (dose: 400.0 mg/kg/injection, schedule: Q04DX003 (ip), vehicle: saline): 98 % of control

NC(=O)c1[nH]c(N=Nc2ccc(S(N)(=O)=O)cc2)nc1N
T/C (dose: 100.0 mg/kg/injection, schedule: Q04DX003 (ip), vehicle: Klucel (hydroxypropylcellulose) (HPC)): 100 % of control
T/C (dose: 200.0 mg/kg/injection, schedule: Q04DX003 (ip), vehicle: Klucel (hydroxypropylcellulose) (HPC)): 101 % of control
T/C (dose: 400.0 mg/kg/injection, schedule: Q04DX003 (ip), vehicle: Klucel (hydroxypropylcellulose) (HPC)): 94 % of control

NNC(=O)c1ccc(N)cc1
T/C [4]: 100 % of control
T/C [5]: 104 % of control
T/C [6]: 100 % of control
T/C [7]: 104 % of control
T/C [8]: 100 % of control

CCOC(=O)c1ccc(NC(CCN2CCN(CCC(=NC(C)(C)C)Nc3ccc(C(=O)OCC)cc3)CC2)=NC(C)(C)C)cc1
T/C [10]: 96 % of control
T/C [11]: 92 % of control
T/C (dose: 200.0 mg/kg/injection, schedule: Q01DX009 (ip), vehicle: Klucel (hydroxypropylcellulose) (HPC)): 90 % of control

[Br][Sn]([CH2]CC[CH2][Sn]([Br])([c]1ccccc1)[c]1ccccc1)([c]1ccccc1)[c]1ccccc1
T/C [12]: 93 % of control
T/C [13]: 100 % of control

CC(C)[C@](O)(C(=O)OCC1CCN2CC[C@@H](O)C12)[C@H](C)O (some centres not stated)
T/C (dose: 40.6 mg/kg/injection, schedule: Q01DX009 (ip), vehicle: saline): 96 % of control
T/C (dose: 81.25 mg/kg/injection, schedule: Q01DX009 (ip), vehicle: saline): 102 % of control
T/C (dose: 162.5 mg/kg/injection, schedule: Q01DX009 (ip), vehicle: saline): 92 % of control and 98 % of control

COC(=O)/C=C/c1c2ccccc2cc2ccccc12
T/C [14]: 96 % of control
T/C [15]: 96 % of control
T/C [16]: 90 % of control

O=C1CCC2CC1CCC2=O
T/C [17]: 111 % of control
T/C [18]: 102 % of control
T/C [10]: 109 % of control
T/C [11]: 111 % of control

CS(=O)(=O)NC1CC(=O)N(Cc2ccccc2)C1=O (configuration not stated)
T/C (dose: 25.0 mg/kg/injection, schedule: Q01DX005 (ip), vehicle: saline): 91 % of control
T/C (dose: 50.0 mg/kg/injection, schedule: Q01DX005 (ip), vehicle: saline): 99 % of control
T/C (dose: 100.0 mg/kg/injection, schedule: Q01DX005 (ip), vehicle: saline): 105 % of control

CC1(C2(C)CC2(Br)Br)CC1(Br)Br (configuration not stated)
T/C [12]: 101 % of control
T/C [13]: 102 % of control
T/C [19]: 114 % of control

COC(=O)C1=C/C=C\CN(C=O)/C=C\1C(=O)OC
T/C (dose: 100.0 mg/kg/injection, schedule: Q01DX001 (ip), vehicle: alcohol): 101 % of control
T/C (dose: 200.0 mg/kg/injection, schedule: Q01DX001 (ip), vehicle: alcohol): 92 % of control
T/C (dose: 400.0 mg/kg/injection, schedule: Q01DX001 (ip), vehicle: alcohol): 101 % of control

COc1cc2c(cc1OC)C(C#N)(C(c1ccccc1)c1ccccc1)N(C(=O)c1ccccc1)C=C2 (configuration not stated)
T/C [14]: 100 % of control
T/C [15]: 100 % of control
T/C [16]: 96 % of control

CCOC(=O)C(C(=O)OCC)c1ccccn1
T/C [4]: 98 % of control
T/C [6]: 107 % of control
T/C [8]: 108 % of control

COc1ccc2c(C)cc(N/N=C/c3ccc(OC)c4ccccc34)nc2c1
T/C [12]: 98 % of control
T/C [13]: 102 % of control
T/C [19]: 94 % of control

Nc1nc(=S)ss1
T/C [17]: 116 % of control and 98 % of control
T/C [18]: 107 % of control and 111 % of control
T/C [10]: 109 % of control and 119 % of control
T/C [11]: 109 % of control

O=C1C2=C(CCC2)C2CCCC12 (configuration not stated)
T/C [4]: 102 % of control
T/C [6]: 109 % of control
T/C [8]: 90 % of control

O=c1c(N=Nc2ccccc2)c(O)n(-c2ccccc2Cl)c(=S)n1-c1ccccc1
T/C (dose: 25.0 mg/kg/injection, schedule: Q01DX001 (ip), vehicle: Klucel (hydroxypropylcellulose) (HPC)): 97 % of control
T/C (dose: 50.0 mg/kg/injection, schedule: Q01DX001 (ip), vehicle: Klucel (hydroxypropylcellulose) (HPC)): 104 % of control
T/C (dose: 100.0 mg/kg/injection, schedule: Q01DX001 (ip), vehicle: Klucel (hydroxypropylcellulose) (HPC)): 92 % of control

CSC(/C=C1\C=CN(Cc2ccccc2)c2ccccc21)=N\S(=O)(=O)c1ccc(C)cc1
T/C (dose: 25.0 mg/kg/injection, schedule: Q04DX002 (ip), vehicle: saline with Tween-80): 102 % of control
T/C (dose: 50.0 mg/kg/injection, schedule: Q04DX002 (ip), vehicle: saline with Tween-80): 97 % of control
T/C (dose: 100.0 mg/kg/injection, schedule: Q04DX002 (ip), vehicle: saline with Tween-80): 97 % of control

c1ccc(P2CCc3[nH]c4ccccc4c3C2)cc1 (configuration not stated)
T/C [5]: 101 % of control
T/C [7]: 105 % of control and 110 % of control
T/C [9]: 103 % of control and 120 % of control
T/C (dose: 400.0 mg/kg/injection, schedule: Q04DX003 (ip), vehicle: saline with Tween-80): 114 % of control

[Be]=[Se]
T/C (dose: 7.5 mg/kg/injection, schedule: Q01DX005 (ip), vehicle: other): 97 % of control
T/C (dose: 15.0 mg/kg/injection, schedule: Q01DX005 (ip), vehicle: other): 103 % of control and 108 % of control

O=S1(=O)C2CCCCC2C2CCCCC21 (configuration not stated)
T/C [1]: 108 % of control
T/C [2]: 106 % of control
T/C [3]: 113 % of control

CN(Cc1cnc2nc(N)nc(N)c2n1)c1ccc(C(=O)NC(CCC(=O)OC(C)(C)C)C(=O)O)cc1 (configuration not stated)
T/C (dose: 5.0 mg/kg/injection, schedule: Q03HX024 (ip), vehicle: sodium bicarbonate): 156 % of control
T/C (dose: 10.0 mg/kg/injection, schedule: Q03HX024 (ip), vehicle: sodium bicarbonate): 182 % of control
T/C (dose: 20.0 mg/kg/injection, schedule: Q03HX024 (ip), vehicle: sodium bicarbonate): 230 % of control
T/C (dose: 20.0 mg/kg/injection, schedule: Q04DX003 (ip), vehicle: sodium bicarbonate): 122 % of control
T/C (dose: 40.0 mg/kg/injection, schedule: Q03HX024 (ip), vehicle: sodium bicarbonate): 269 % of control
T/C (dose: 80.0 mg/kg/injection, schedule: Q03HX024 (ip), vehicle: sodium bicarbonate): 153 % of control

C[Si](C)(C)N[Si](C)(C)C
T/C [10]: 100 % of control
T/C [11]: 102 % of control

O=S(=O)(Nc1ccccc1C(F)(F)F)c1ccc(F)cc1
T/C [14]: 99 % of control
T/C [15]: 100 % of control
T/C [16]: 95 % of control

O=C(Nc1ccc(Cl)cc1)Nc1nnc(-c2ccc(Cl)cc2Cl)o1
T/C [14]: 91 % of control
T/C [15]: 86 % of control
T/C [16]: 97 % of control

CC[P+](CC)(c1ccccc1)c1ccccc1
T/C (dose: 3.12 mg/kg/injection, schedule: Q01DX005 (ip), vehicle: saline): 94 % of control
T/C (dose: 6.25 mg/kg/injection, schedule: Q01DX005 (ip), vehicle: saline): 95 % of control
T/C (dose: 12.5 mg/kg/injection, schedule: Q01DX005 (ip), vehicle: saline): 100 % of control
